Source: the NIST ThermoML archive (doi:10.1021/je900615b)
Where “and” joins values, the source holds several entries; their conditions need not be identical. Equal values may be shown once.

Conditions: Liquid, Hot wire method

CCOCC [diethyl ether]
Conditions	thermal conductivity [W/m/K]
234.64 K, 100 kPa	0.1453
234.88 K, 20100 kPa	0.1543
234.9 K, 30300 kPa	0.1565
234.92 K, 20100 kPa	0.1542
235.03 K, 100 kPa	0.1461
235.09 K, 20200 kPa	0.1538
235.1 K, 10100 kPa	0.1496
235.17 K, 5100 kPa	0.1478
235.22 K, 30200 kPa	0.1563
235.4 K, 30400 kPa	0.1559
235.48 K, 10100 kPa	0.1499
235.53 K, 5100 kPa	0.1479
235.89 K, 10100 kPa	0.15
235.93 K, 5100 kPa	0.1477
235.94 K, 100 kPa	0.1456
254.64 K, 20200 kPa	0.1484
254.74 K, 30000 kPa	0.1514
254.75 K, 5200 kPa	0.1408
254.86 K, 30000 kPa	0.1512
254.91 K, 19700 kPa	0.1477
254.95 K, 100 kPa	0.1386
254.98 K, 10100 kPa	0.1427
254.99 K, 4900 kPa	0.1411
255.26 K, 100 kPa	0.1386
255.28 K, 29900 kPa	0.1512
255.34 K, 20200 kPa	0.1475
255.37 K, 5100 kPa	0.1407
255.38 K, 10200 kPa	0.1432
255.69 K, 10000 kPa	0.1427
255.7 K, 100 kPa	0.1386
274.69 K, 100 kPa	0.1315
274.7 K, 20100 kPa	0.1409
274.71 K, 5000 kPa	0.1338
274.71 K, 10000 kPa	0.1363
274.92 K, 30000 kPa	0.1447
274.93 K, 20000 kPa	0.1409
274.96 K, 100 kPa	0.1319
274.97 K, 10000 kPa	0.1362
275.21 K, 30000 kPa	0.145
275.37 K, 100 kPa	0.1317
275.38 K, 5000 kPa	0.1339
275.56 K, 10100 kPa	0.1364
275.64 K, 30000 kPa	0.145
275.7 K, 20000 kPa	0.1407
275.79 K, 5000 kPa	0.134
294.61 K, 20200 kPa	0.1366
294.79 K, 10100 kPa	0.1311
294.81 K, 5100 kPa	0.128
294.83 K, 29900 kPa	0.1419
294.93 K, 20000 kPa	0.1366
295.04 K, 5000 kPa	0.128
295.06 K, 10100 kPa	0.1309
295.08 K, 29700 kPa	0.1416
295.25 K, 20000 kPa	0.1365
295.26 K, 10000 kPa	0.1308
295.31 K, 100 kPa	0.1248
295.43 K, 5100 kPa	0.1277
295.53 K, 29900 kPa	0.1419
295.6 K, 100 kPa	0.1252
296.02 K, 100 kPa	0.125
314.33 K, 5100 kPa	0.1201
314.44 K, 5300 kPa	0.1205
314.55 K, 30100 kPa	0.1357
314.6 K, 10000 kPa	0.1231
314.95 K, 10100 kPa	0.1236
314.95 K, 20100 kPa	0.1291
314.95 K, 30100 kPa	0.1361
315.01 K, 200 kPa	0.1187
315.13 K, 200 kPa	0.1182
315.21 K, 5200 kPa	0.1202
315.39 K, 30100 kPa	0.1356
315.5 K, 200 kPa	0.1182
315.52 K, 10100 kPa	0.1232
315.56 K, 20200 kPa	0.1289
315.91 K, 20100 kPa	0.1287
335.02 K, 5100 kPa	0.1127
335.13 K, 20300 kPa	0.1222
335.21 K, 5100 kPa	0.1127
335.28 K, 200 kPa	0.1093
335.3 K, 30200 kPa	0.1275
335.33 K, 10200 kPa	0.1159
335.33 K, 19900 kPa	0.1217
335.63 K, 5200 kPa	0.1126
335.71 K, 20400 kPa	0.1224
335.72 K, 10100 kPa	0.1162
335.72 K, 30000 kPa	0.1271
335.78 K, 200 kPa	0.1091
336.08 K, 200 kPa	0.1092
336.13 K, 30200 kPa	0.1269
336.17 K, 10100 kPa	0.1159
354.59 K, 30000 kPa	0.1208
354.75 K, 5000 kPa	0.1044
355.05 K, 10000 kPa	0.1084
355.05 K, 30000 kPa	0.1206
355.08 K, 500 kPa	0.1001
355.18 K, 20000 kPa	0.115
355.32 K, 10100 kPa	0.1082
355.37 K, 5000 kPa	0.1048
355.39 K, 30000 kPa	0.1204
355.52 K, 500 kPa	0.1001
355.52 K, 20000 kPa	0.1148
355.74 K, 5000 kPa	0.1045
355.8 K, 10000 kPa	0.1079
355.82 K, 500 kPa	0.1002
356.03 K, 20000 kPa	0.1147
374.62 K, 10000 kPa	0.1004
374.7 K, 5200 kPa	0.0974
374.92 K, 30000 kPa	0.1132
375.01 K, 29700 kPa	0.1131
375.06 K, 10000 kPa	0.1011
375.22 K, 20000 kPa	0.1081
375.25 K, 5100 kPa	0.0973
375.4 K, 5000 kPa	0.0973
375.46 K, 10000 kPa	0.1008
375.51 K, 29800 kPa	0.1135
375.62 K, 20000 kPa	0.1082
375.72 K, 700 kPa	0.0926
376.18 K, 700 kPa	0.0925
376.28 K, 20000 kPa	0.1076
376.8 K, 700 kPa	0.0923

CC(C)OC(C)C [diisopropyl ether]
Conditions	thermal conductivity
235.46 K, 100 kPa	0.1259 W/m/K
235.54 K, 100 kPa	0.1258 W/m/K
236.06 K, 100 kPa	0.1259 W/m/K
236.15 K, 30600 kPa	0.1369 W/m/K
236.25 K, 5000 kPa	0.128 W/m/K
236.29 K, 10100 kPa	0.13 W/m/K
236.33 K, 5000 kPa	0.1275 W/m/K
236.44 K, 20200 kPa	0.1331 W/m/K
236.45 K, 20300 kPa	0.1337 W/m/K
236.53 K, 29900 kPa	0.1364 W/m/K
236.67 K, 5000 kPa	0.1277 W/m/K
236.7 K, 10200 kPa	0.1305 W/m/K
236.8 K, 20300 kPa	0.1337 W/m/K
236.92 K, 30000 kPa	0.1363 W/m/K
237.15 K, 10200 kPa	0.1302 W/m/K
254.4 K, 20400 kPa	0.1276 W/m/K
254.47 K, 30400 kPa	0.1314 W/m/K
254.66 K, 5100 kPa	0.122 W/m/K
254.73 K, 100 kPa	0.1201 W/m/K
254.74 K, 10000 kPa	0.1238 W/m/K
254.76 K, 29500 kPa	0.1312 W/m/K
254.86 K, 10200 kPa	0.1241 W/m/K
254.89 K, 5300 kPa	0.1223 W/m/K
254.9 K, 20100 kPa	0.128 W/m/K
255.08 K, 100 kPa	0.1205 W/m/K
255.13 K, 10100 kPa	0.1236 W/m/K
255.14 K, 5100 kPa	0.1221 W/m/K
255.26 K, 100 kPa	0.1199 W/m/K
255.58 K, 30100 kPa	0.1315 W/m/K
255.61 K, 19900 kPa	0.1285 W/m/K
274.6 K, 30000 kPa	0.1274 W/m/K
274.72 K, 10100 kPa	0.1177 W/m/K
274.86 K, 29900 kPa	0.1269 W/m/K
274.89 K, 20000 kPa	0.122 W/m/K
274.95 K, 5100 kPa	0.1154 W/m/K
275 K, 100 kPa	0.1129 W/m/K
275.02 K, 10000 kPa	0.1178 W/m/K
275.17 K, 30100 kPa	0.1271 W/m/K
275.19 K, 5000 kPa	0.115 W/m/K
275.25 K, 10000 kPa	0.1175 W/m/K
275.3 K, 100 kPa	0.1135 W/m/K
275.51 K, 20100 kPa	0.1218 W/m/K
275.6 K, 5000 kPa	0.1152 W/m/K
275.91 K, 100 kPa	0.1131 W/m/K
276.04 K, 20100 kPa	0.1219 W/m/K
294.58 K, 100 kPa	0.1073 W/m/K
294.64 K, 30100 kPa	0.1197 W/m/K
294.65 K, 10000 kPa	0.1118 W/m/K
294.95 K, 5000 kPa	0.1089 W/m/K
294.98 K, 10000 kPa	0.1115 W/m/K
295.03 K, 100 kPa	0.1071 W/m/K
295.13 K, 20100 kPa	0.1161 W/m/K
295.14 K, 30100 kPa	0.1199 W/m/K
295.27 K, 30000 kPa	0.1198 W/m/K
295.32 K, 10100 kPa	0.1111 W/m/K
295.35 K, 5000 kPa	0.1085 W/m/K
295.6 K, 20100 kPa	0.116 W/m/K
295.7 K, 100 kPa	0.1066 W/m/K
295.82 K, 5000 kPa	0.1087 W/m/K
296.18 K, 20100 kPa	0.1159 W/m/K
314.96 K, 30000 kPa	0.1145 W/m/K
315.03 K, 5000 kPa	0.1027 W/m/K
315.07 K, 20000 kPa	0.1105 W/m/K
315.13 K, 100 kPa	0.0993 W/m/K
315.24 K, 30000 kPa	0.1144 W/m/K
315.26 K, 20000 kPa	0.1099 W/m/K
315.35 K, 10000 kPa	0.105 W/m/K
315.39 K, 5000 kPa	0.1023 W/m/K
315.48 K, 100 kPa	0.0996 W/m/K
315.71 K, 10000 kPa	0.1054 W/m/K
315.73 K, 5100 kPa	0.1027 W/m/K
315.76 K, 20000 kPa	0.1104 W/m/K
315.88 K, 100 kPa	0.0994 W/m/K
315.98 K, 30000 kPa	0.1144 W/m/K
316.26 K, 10000 kPa	0.105 W/m/K
334.99 K, 10100 kPa	0.0998 W/m/K
335.01 K, 5400 kPa	0.0959 W/m/K
335.11 K, 20000 kPa	0.1038 W/m/K
335.23 K, 100 kPa	0.0935 W/m/K
335.29 K, 29900 kPa	0.1093 W/m/K
335.32 K, 10100 kPa	0.0995 W/m/K
335.46 K, 100 kPa	0.0932 W/m/K
335.51 K, 30200 kPa	0.1094 W/m/K
335.68 K, 19700 kPa	0.1043 W/m/K
335.72 K, 30000 kPa	0.1096 W/m/K
335.84 K, 5000 kPa	0.096 W/m/K
335.84 K, 10100 kPa	0.0995 W/m/K
335.94 K, 100 kPa	0.0931 W/m/K
336.31 K, 20100 kPa	0.1042 W/m/K
336.37 K, 5200 kPa	0.0959 W/m/K
354.72 K, 29900 kPa	0.106 W/m/K and 0.1051 W/m/K
354.85 K, 19700 kPa	0.1006 W/m/K
354.97 K, 5000 kPa	0.0913 W/m/K
354.97 K, 19800 kPa	0.1 W/m/K
355.23 K, 10100 kPa	0.0944 W/m/K
355.29 K, 300 kPa	0.0865 W/m/K
355.33 K, 10100 kPa	0.0944 W/m/K
355.45 K, 5000 kPa	0.0916 W/m/K
355.47 K, 20100 kPa	0.1001 W/m/K
355.56 K, 5000 kPa	0.091 W/m/K
355.66 K, 300 kPa	0.0869 W/m/K
355.87 K, 10000 kPa	0.094 W/m/K
356.04 K, 300 kPa	0.0866 W/m/K
356.04 K, 29900 kPa	0.1056 W/m/K
374.75 K, 30000 kPa	0.1021 W/m/K
374.95 K, 29800 kPa	0.1021 W/m/K
375.12 K, 20000 kPa	0.0959 W/m/K
375.24 K, 400 kPa	0.0813 W/m/K
375.25 K, 10000 kPa	0.0893 W/m/K
375.4 K, 5100 kPa	0.0858 W/m/K
375.47 K, 400 kPa	0.0812 W/m/K
375.55 K, 30300 kPa	0.1026 W/m/K
375.57 K, 20000 kPa	0.0957 W/m/K
375.61 K, 10000 kPa	0.0889 W/m/K
375.75 K, 5100 kPa	0.0853 W/m/K
375.87 K, 400 kPa	0.0816 W/m/K
376.05 K, 20000 kPa	0.0955 W/m/K
376.23 K, 10000 kPa	0.089 W/m/K
376.26 K, 5100 kPa	0.0854 W/m/K
